Laboratory results published in PubChem BioAssay AID330 (DTP/NCI, 2004).
Where “and” joins values, the source holds several entries; their conditions need not be identical. Identical values can stand only once. Toxic doses and inconclusive results are not listed.

System: P388 leukemia ip, CD2F1 mice, survival T/C
Experiment: NCI In Vivo Anticancer Drug Screen. Data for tumor model P388 Leukemia (intraperitoneal) in CD2F1 (CDF1) mice
Details: endpoint: median survival time, higher = longer survival
How it was run: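 Mice carrying the transplanted tumor received test compound or vehicle. Survival was recorded in each group, and the value is the treated-group measurement divided by that of the vehicle-treated control group.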

[1] = dose: 50.0 mg/kg/injection, schedule: Q01DX009 (ip), vehicle: Klucel (hydroxypropylcellulose) (HPC)
[2] = dose: 100.0 mg/kg/injection, schedule: Q01DX009 (ip), vehicle: Klucel (hydroxypropylcellulose) (HPC)
[3] = dose: 200.0 mg/kg/injection, schedule: Q01DX009 (ip), vehicle: Klucel (hydroxypropylcellulose) (HPC)
[4] = dose: 60.0 mg/kg/injection, schedule: Q01DX005 (ip), vehicle: saline with Tween-80
[5] = dose: 120.0 mg/kg/injection, schedule: Q01DX005 (ip), vehicle: saline with Tween-80
[6] = dose: 240.0 mg/kg/injection, schedule: Q01DX005 (ip), vehicle: saline with Tween-80
[7] = dose: 50.0 mg/kg/injection, schedule: Q01DX005 (ip), vehicle: Klucel (hydroxypropylcellulose) (HPC)
[8] = dose: 100.0 mg/kg/injection, schedule: Q01DX005 (ip), vehicle: Klucel (hydroxypropylcellulose) (HPC)
[9] = dose: 200.0 mg/kg/injection, schedule: Q01DX005 (ip), vehicle: Klucel (hydroxypropylcellulose) (HPC)
[10] = dose: 50.0 mg/kg/injection, schedule: Q01DX005 (ip), vehicle: saline with Tween-80
[11] = dose: 100.0 mg/kg/injection, schedule: Q01DX005 (ip), vehicle: saline with Tween-80
[12] = dose: 200.0 mg/kg/injection, schedule: Q01DX005 (ip), vehicle: saline with Tween-80
[13] = dose: 6.25 mg/kg/injection, schedule: Q01DX009 (ip), vehicle: saline
[14] = dose: 12.5 mg/kg/injection, schedule: Q01DX009 (ip), vehicle: saline
[15] = dose: 25.0 mg/kg/injection, schedule: Q01DX009 (ip), vehicle: saline
[16] = dose: 30.0 mg/kg/injection, schedule: Q01DX005 (ip), vehicle: saline with Tween-80
[17] = dose: 15.0 mg/kg/injection, schedule: Q01DX005 (ip), vehicle: saline with Tween-80
[18] = dose: 100.0 mg/kg/injection, schedule: Q01DX009 (ip), vehicle: saline with Tween-80
[19] = dose: 200.0 mg/kg/injection, schedule: Q01DX009 (ip), vehicle: saline with Tween-80
[20] = dose: 400.0 mg/kg/injection, schedule: Q01DX009 (ip), vehicle: saline with Tween-80

Structure (SMILES): O=C(Nc1cc(S(=O)(=O)O)cc2cc(S(=O)(=O)O)c(N=Nc3cc(Nc4nc(Cl)nc(Nc5ccc(S(=O)(=O)O)cc5)n4)ccc3S(=O)(=O)O)c(O)c12)c1ccccc1
- T/C (dose: 60.0 mg/kg/injection, schedule: Q01DX005 (ip), vehicle: saline): 106 % of control
- T/C (dose: 120.0 mg/kg/injection, schedule: Q01DX005 (ip), vehicle: saline): 102 % of control

Structure (SMILES): O=c1[nH]c2cc([N+](=O)[O-])ccc2o1
- T/C [1]: 102 % of control
- T/C [2]: 105 % of control
- T/C [3]: 105 % of control

Structure (SMILES): Oc1cc(Br)ccc1/C=N/Nc1ccccn1
- T/C [4]: 90 % of control
- T/C [5]: 96 % of control
- T/C [6]: 101 % of control

Structure (SMILES): COc1c(CC(C)O)c2c3c(CC(C)O)c(OC)c(=O)c4cc(O)c5c(c6c(c(O)cc(c1=O)c26)OCO5)c43 (stereo unspecified)
- T/C (dose: 25.0 mg/kg/injection, schedule: Q04DX002 (ip), vehicle: saline with Tween-80): 101 % of control
- T/C (dose: 50.0 mg/kg/injection, schedule: Q04DX002 (ip), vehicle: saline with Tween-80): 109 % of control
- T/C (dose: 100.0 mg/kg/injection, schedule: Q04DX002 (ip), vehicle: saline with Tween-80): 101 % of control
- T/C (dose: 200.0 mg/kg/injection, schedule: Q04DX002 (ip), vehicle: saline with Tween-80): 115 % of control
- T/C (dose: 400.0 mg/kg/injection, schedule: Q04DX002 (ip), vehicle: saline with Tween-80): 115 % of control

Structure (SMILES): CC(=O)OCC12C(OC(=O)c3ccccc3)C(=O)C3C(OC(C)=O)C1(OC3(C)C)C(C)(O)CC(OC(C)=O)C2OC(=O)/C=C/c1ccccc1 (stereo unspecified) (tested in a mixture with another compound)
- T/C (dose: 25.0 mg/kg/injection, schedule: Q01DX005 (ip), vehicle: Klucel (hydroxypropylcellulose) (HPC)): 100 % of control
- T/C [7]: 100 % of control
- T/C [8]: 102 % of control
- T/C [9]: 102 % of control

Structure (SMILES): CC1(C)C=C(C(=O)ON2C(=O)CCC2=O)C(C)(C)N1O
- T/C [1]: 113 % of control
- T/C [2]: 106 % of control

Structure (SMILES): CSC(C(=O)O)c1cc(-c2c(Cl)cccc2Cl)no1 (stereo unspecified)
- T/C [10]: 104 % of control
- T/C [11]: 105 % of control
- T/C [12]: 107 % of control

Structure (SMILES): CCOC(=O)C1(N)CCCC1
- T/C [13]: 105 % of control and 86 % of control
- T/C [14]: 100 % of control and 102 % of control
- T/C [15]: 100 % of control and 96 % of control
- T/C (dose: 50.0 mg/kg/injection, schedule: Q01DX009 (ip), vehicle: saline): 114 % of control and 96 % of control

Structure (SMILES): CCCCCCCCCCCCSSC(=S)OC(C)C
- T/C (dose: 50.0 mg/kg/injection, schedule: Q01DX009 (ip), vehicle: saline + Tween-80 + alcohol): 100 % of control
- T/C (dose: 100.0 mg/kg/injection, schedule: Q01DX009 (ip), vehicle: saline + Tween-80 + alcohol): 116 % of control
- T/C (dose: 200.0 mg/kg/injection, schedule: Q01DX009 (ip), vehicle: saline + Tween-80 + alcohol): 122 % of control
- T/C (dose: 400.0 mg/kg/injection, schedule: Q01DX009 (ip), vehicle: saline + Tween-80 + alcohol): 119 % of control

Structure (SMILES): CCOc1ccc2c(N=[N+]=[N-])cc(C)nc2c1
- T/C [16]: 94 % of control
- T/C [4]: 103 % of control and 91 % of control
- T/C [5]: 92 % of control

Structure (SMILES): O=[N+]([O-])c1cc2c(ccc3occc32)o1
- T/C [7]: 102 % of control
- T/C [8]: 97 % of control
- T/C [9]: 98 % of control

Structure (SMILES): CC(=O)SC1C(=O)N(C)C(SC(C)=O)C(=O)N1C (stereo unspecified)
- T/C [13]: 107 % of control
- T/C [14]: 110 % of control

Structure (SMILES): Cc1ccc(/C=C2/N=C([Se])N(C)C2=O)cc1
- T/C [17]: 100 % of control
- T/C [16]: 95 % of control
- T/C [4]: 101 % of control
- T/C [5]: 86 % of control

Structure (SMILES): CCOC(=O)c1cccc2c([N+](=O)[O-])c([N+](=O)[O-])cc(C(=O)OCC)c12
- T/C (dose: 100.0 mg/kg/injection, schedule: Q01DX001 (ip), vehicle: saline with Tween-80): 99 % of control
- T/C (dose: 200.0 mg/kg/injection, schedule: Q01DX001 (ip), vehicle: saline with Tween-80): 102 % of control
- T/C (dose: 400.0 mg/kg/injection, schedule: Q01DX001 (ip), vehicle: saline with Tween-80): 99 % of control

Structure (SMILES): CC(=O)n1cc(C2CC(=O)OC3=C2CC(=O)C(C)(C)C3)c2ccccc21 (stereo unspecified)
- T/C (dose: 25.0 mg/kg/injection, schedule: Q01DX009 (ip), vehicle: saline with Tween-80): 100 % of control
- T/C (dose: 50.0 mg/kg/injection, schedule: Q01DX009 (ip), vehicle: saline with Tween-80): 103 % of control
- T/C [18]: 110 % of control
- T/C [19]: 113 % of control
- T/C [20]: 119 % of control

Structure (SMILES): CCOC(=O)CC(=O)Nc1sc(CC)cc1C(=O)OCC
- T/C [4]: 100 % of control
- T/C [5]: 94 % of control

Structure (SMILES): O=C1c2ccccc2C(=O)N1OCc1cccc(C(F)(F)F)c1
- T/C [7]: 98 % of control
- T/C [8]: 90 % of control
- T/C [9]: 86 % of control

Structure (SMILES): CCCCC(NC(=O)CC)C(=O)O (stereo unspecified)
- T/C [13]: 107 % of control
- T/C [14]: 94 % of control
- T/C [15]: 98 % of control
- T/C (dose: 200.0 mg/kg/injection, schedule: Q01DX009 (ip), vehicle: saline): 100 % of control

Structure (SMILES): CC1=C(N(C)C)C(=O)N(c2ccccc2)CN1C
- T/C (dose: 3.75 mg/kg/injection, schedule: Q01DX005 (ip), vehicle: saline with Tween-80): 111 % of control
- T/C (dose: 7.5 mg/kg/injection, schedule: Q01DX005 (ip), vehicle: saline with Tween-80): 102 % of control
- T/C [17]: 101 % of control and 103 % of control

Structure (SMILES): COc1ccc2c(c1)CCn1c(C)c(COC(=O)NC3CCCCC3)c(COC(=O)NC3CCCCC3)c1-2
- T/C (dose: 50.0 mg/kg/injection, schedule: Q01DX009 (ip), vehicle: distilled water + Tween-80): 151 % of control and 164 % of control
- T/C (dose: 100.0 mg/kg/injection, schedule: Q01DX009 (ip), vehicle: distilled water + Tween-80): 92 % of control

Structure (SMILES): CC(Cl)(C=O)c1ccccc1 (stereo unspecified)
- T/C [4]: 100 % of control
- T/C [5]: 97 % of control

Structure (SMILES): CC(=O)Cc1ccc(C)cc1
- T/C (dose: 100.0 mg/kg/injection, schedule: Q04DX003 (ip), vehicle: saline with Tween-80): 104 % of control
- T/C (dose: 200.0 mg/kg/injection, schedule: Q04DX003 (ip), vehicle: saline with Tween-80): 104 % of control
- T/C (dose: 400.0 mg/kg/injection, schedule: Q04DX003 (ip), vehicle: saline with Tween-80): 104 % of control

Structure (SMILES): O=C(CCl)NC(O)C(Cl)(Cl)Cl (stereo unspecified)
- T/C [10]: 101 % of control
- T/C [11]: 99 % of control
- T/C [12]: 103 % of control

Structure (SMILES): COc1ccc2c(c1)CCc1c(-c3noc4c3CCc3cc(OC)ccc3-4)noc1-2
- T/C (dose: 60.0 mg/kg/injection, schedule: Q01DX005 (ip), vehicle: Klucel + Tween-80): 92 % of control
- T/C (dose: 120.0 mg/kg/injection, schedule: Q01DX005 (ip), vehicle: Klucel + Tween-80): 96 % of control
- T/C (dose: 240.0 mg/kg/injection, schedule: Q01DX005 (ip), vehicle: Klucel + Tween-80): 100 % of control

Structure (SMILES): N[C@@H](Cc1ccccc1)C(=O)NCCNC(=O)[C@@H](N)Cc1ccccc1
- T/C [4]: 103 % of control
- T/C [5]: 100 % of control
- T/C [6]: 104 % of control

Structure (SMILES): O=S(=O)(SC(S(=O)(=O)c1ccccc1)S(=O)(=O)c1ccccc1)c1ccccc1
- T/C [3]: 123 % of control
- T/C (dose: 400.0 mg/kg/injection, schedule: Q01DX009 (ip), vehicle: Klucel (hydroxypropylcellulose) (HPC)): 123 % of control

Structure (SMILES): Brc1ccc(-c2csc(Nc3nc(-c4ccc(Br)cc4)cs3)n2)cc1
- T/C [18]: 95 % of control
- T/C [19]: 100 % of control
- T/C [20]: 104 % of control

Structure (SMILES): COC1CC(N=S(=O)(O)c2ccc(N)cc2)[N-]C(OC)N1.[Ag+] (stereo unspecified)
- T/C [1]: 97 % of control
- T/C [2]: 93 % of control
- T/C [3]: 102 % of control
